According to patent US20080160001A1, “Antihypercholesterolemic Formulation with Less Side-Effects” (PFICKER PHARMACEUTICALS LTD., priority 2005, published 2008):
Values belong to the compound of their own block, whether it stands above or below them.

Experiments:
[1] = in vivo; cited from earlier work
[2] = Experiment on stability of simvastatin; assay type: physicochemical; details: under pH of 5-7
[3] = test system: patients (clinical cases); experiment: Summary of clinical cases; details: patient, simvastatin 20 mg; for blood ammonia: before test 72; for cholesterol in the blood: before test 249; for concentration of cholesterol in the blood: before 249
patients [4] = details: cited from earlier work
[5] = cited from earlier work
patients [6] = details: patient with abnormal heart function, 40 mg alone, within 6 months, from 0.70; cited from earlier work

Compound: C[N+](C)(C)C[C@H](O)CC(=O)[O-] [L-Carnitine]
amount at which no toxic and side effect is found [1]: 500 mg/kg body weight/day

stability of simvastatin solid [2]: good stability | blood ammonia ([3]; 5 weeks): 84 µg/L | blood ammonia ([3]; 10 weeks): 69 µg/L | blood ammonia ([3]; 15 weeks): 77 µg/L | blood ammonia ([3]; 20 weeks): 108 µg/L | blood ammonia ([3]; 25 weeks): 89 µg/L | blood ammonia ([3]; 30 weeks): 93 µg/L | blood ammonia ([3]; 35 weeks): 162 µg/L | concentration of blood ammonia ([3]; after 6 months, before 72): 162 ng/mL
Compound: CCC(C)(C)C(=O)O[C@H]1C[C@@H](C)C=C2C=C[C@H](C)[C@H](CC[C@@H]3C[C@@H](O)CC(=O)O3)[C@H]21 [simvastatin]
ejection fraction ([3]; 5 weeks, before test 0.59): 0.62 | cholesterol in the blood ([3]; 5 weeks): 202 mg/L | ejection fraction ([3]; 10 weeks, before test 0.59): 0.60 | cholesterol in the blood ([3]; 10 weeks): 198 mg/L | ejection fraction ([3]; 15 weeks, before test 0.59): 0.63 | cholesterol in the blood ([3]; 15 weeks): 194 mg/L | ejection fraction ([3]; 20 weeks, before test 0.59): 0.58 | cholesterol in the blood ([3]; 20 weeks): 197 mg/L | ejection fraction ([3]; 25 weeks, before test 0.59): 0.62 | cholesterol in the blood ([3]; 25 weeks): 192 mg/L | ejection fraction ([3]; 30 weeks, before test 0.59): 0.61 | cholesterol in the blood ([3]; 30 weeks): 194 mg/L | ejection fraction ([3]; 35 weeks, before test 0.59): 0.61 | cholesterol in the blood ([3]; 35 weeks): 189 mg/L | ejection fraction ([3]; after 6 months, before 0.59): 0.61 | concentration of cholesterol in the blood ([3]; after 6 months): 189 mg/L | concentration of cholesterol in the blood ([3]; after one month): 202 mg/L

Compound: Vitamin E
amount at which no toxic and side effect is found [1]: 500 mg/day

Compound: COC1=C(OC)C(=O)C(C/C=C(\C)CC/C=C(\C)CC/C=C(\C)CC/C=C(\C)CC/C=C(\C)CC/C=C(\C)CC/C=C(\C)CC/C=C(\C)CC/C=C(\C)CCC=C(C)C)=C(C)C1=O [coenzyme Q10]
amount at which no toxic and side effect is found [1]: 100 mg/kg body weight/day | outcome of patients close to death due to heart failure (patients [4]; 19 patients): becoming better | patients with three-year persistence (patients [4]; added to traditional therapy for heart diseases, traditional therapy 25%): 75% | solubility in an aqueous medium [5]: very low

Compound: silymarin
amount at which no toxic and side effect is found [1]: 200 mg/kg body weight/day

Compound: O=C(O)CCCCC1CCSS1 (centres unmarked) [lipoic acid]
amount at which no toxic and side effect is found [1]: 300 mg/day

Compound: CC[C@H](C)C(=O)O[C@H]1C[C@@H](C)C=C2C=C[C@H](C)[C@H](CC[C@@H]3C[C@@H](O)CC(=O)O3)[C@H]21 [lovastatin]
ejection fraction of heart (patients [6]): 0.54
